# Measured values from patent publication US11712439B2, “Methods and materials for identifying and treating bet inhibitor-resistant cancers” (Mayo Foundation for Medical Education and Research, priority 2017, dated 2023).
# Tests used:
# [1] = system: FDFT1, DHCR24, DHCR7 and MVD; assay: RT-qPCR and Western blot of cholesterol synthesis genes in C4-2 cells; format: cell-based, human; conditions: JQ1 1 μM 24 hours
# Procedure: Cell lysates or immunoprecipitates were subjected to SDS-PAGE, and proteins were transferred to nitrocellulose membranes (GE Healthcare Sciences). The membranes were blocked in Tris-buffered saline (TBS, pH 7.4) containing 5% non-fat milk and 0.1% Tween-20, washed twice in TBS containing 0.1% Tween-20, and incubated with primary antibody overnight at 4° C., followed by secondary antibody for 1 hour at room temperature. The proteins of interest were visualized using ECL chemiluminescence system (Santa Cruz Biotechnology). Densitometry analysis of protein bands was analyzed on the Gel-Pro Analyzer software.
# Total RNA was isolated from transiently transfected cells using the Trizol reagent (Thermo Fisher Scientific), and cDNA was reverse-transcribed using the Superscript RT kit (TOYOBO, Japan) according to the manufacturer's instructions. PCR amplification was performed using the SYBR Green PCR master mix Kit (TOYOBO, Japan). All quantization was normalized to the level of endogenous control GAPDH. […]
# [2] = system: SPOP-BRD2/3/4 protein interaction; assay: Co-immunoprecipitation of SPOP with BRD2/3/4 in 293T cells; format: cell-based, human; conditions: JQ1 1 μM for 24 hours
# Procedure: To immunoprecipitate the ectopically expressed FLAG-tagged proteins, transfected cells were lysed 24 hours post-transfection in BC100 buffer. The whole-cell lysates were immunoprecipitated with the monoclonal anti-FLAG antibody-conjugated M2 agarose beads (Sigma-Aldrich) at 4° C. overnight. After three washes with lysis buffer, followed by two washes with BC100 buffer, the bound proteins were eluted using FLAG-Peptide (Sigma-Aldrich) prepared in BC100 for 3 hours at 4° C. The eluted protein sample was resolved by SDS-PAGE. To immunoprecipitate the endogenous proteins, cells were lysed with 1× cell lysis buffer (Cell Signaling Technology), and the lysate was centrifuged. The supernatant was precleared with protein A/G beads (Sigma-Aldrich) and incubated with the indicated antibody and protein A/G beads at 4° C. overnight. Beads were washed five times with lysis buffer and resuspended in sample buffer and analyzed by SDS-PAGE.
smiles,measurement,setting,value
Cc1sc2c(c1C)C(c1ccc(Cl)cc1)=N[C@@H](CC(=O)OC(C)(C)C)c1nnc(C)n1-2 [JQ1],Expression of cholesterol synthesis genes,[1]; SPOP-F133V C4-2 cells,not pronounced
same,Expression of cholesterol synthesis genes,[1]; control C4-2 cells,largely inhibited
same,SPOP-BRD2/3/4 protein interaction,[2],diminished
